# Data from patent US9073880B2, “2-(2-phenylethenyl) 1,3-benzodiazepine derivatives useful for the treatment of cancer” (Yissum Research Development Company of the Hebrew …, priority 2010, dated 2015).
# Experiments:
# [1] = test system: PKB/Akt; experiment: IGF1-induced PKB/Akt activation in A375 cells (Example 3); assay type: cell-based, human; details: melanoma A375 cells treated 4 hr, 1 and 3 μM; FIG. 4
# Method: Tyrosine autophosphorylation of the β-subunit of IGF-1R as well as downstream signaling induced by IGF-1R were assayed in human breast cancer MCF7 cells and in melanoma A375 cells. Cells were seeded in 6-well plates (250,000 A375 cells/well and 300,000 MCF7 cells/well) and 24 hours later medium was replaced by serum-free medium (RPMI supplemented with 100 units/ml penicillin and 100 μg/ml streptomycin). MCF7 cells were exposed for 48 hr to compound 3 at 10 μM concentration, and then stimulated for 5 minutes with 50 ng/ml IGF-1, washed twice with PBS and lysed by boiling sample buffer (10% glycerol, 50 mM Tris-HCl, pH 6.8, 3% SDS, and 5% (3-mercaptoethanol). Equal amounts of protein per lane were separated by 8% SDS-PAGE and transferred to a nitrocellulose membrane (Sartorius AG). Phosphorylated proteins were immunoblotted with anti-phosphoIGF-1R (pIGF-1R), anti-phosphotyrosine-IRS1 (pY-IRS I) and anti-phospho(T308)Akt (pPKB) antibodies. Detection was performed with horseradish peroxidase-conjugated secondary antibody using the ECL system. […]
# In addition, lysates of human melanoma A375 cells were prepared from cells exposed to compound 3 at 1 and 3 μM concentrations in serum-free medium. […] In this experiment the phosphorylated form of IRS1 on Serine-636/639 and the levels of IRS2 were detected as well.
# [2] = test system: human prostate carcinoma PC3 cells; experiment: Cell proliferation, PC3 (Example 2); assay type: cell-based; details: PC-3, 72 hours, 0.1% DMSO, methylene blue
# Method: (§1) Human ovary cancer A2780 cells lines were seeded at a density of 5000 cells/well, human melanoma A375 cells were plated at a density of 2,500 cells/well, human colon carcinoma HCT15 cells were plated at a density of 3,000 cells/well, human prostate carcinoma PC3 cells were plated at a density of 1,500 cells/well, human breast carcinoma MCF7 cells were plated at a density of 5,000 cells/well, human breast carcinoma MDA MB 468 cells were plated at a density of 6,000 cells/well, human myeloma U266, RPMI8226 and CAG cells were plated at a density of 10,000 cells/well. All cells were plated in 96-well plates in 90 μl growth medium containing 10% FCS, 100 units/ml penicillin and 100 μg/ml streptomycin. Compound 3 was added a day later in […] of 1% DMSO in DDW to obtain final concentrations of 0, 0.1, 0.3, 1, 3, and 10 μM. The final concentration of DMSO (0.1% DMSO) was kept constant in all samples. […] The optical density values were read at 630 nm in ELISA plate reader. Non-adhered cells were exposed to WST-1 reagent for 5 hours following 72 hours treatment with the inhibitors, and optical density values were read at 630 nm in ELISA plate reader. The data was analyzed in Microsoft Excel, using the vehicle control as 100% proliferation. […]
# [3] = test system: human colon carcinoma HCT15 cells; experiment: Cell proliferation, HCT15 (Example 2); assay type: cell-based; details: HCT-15, 72 hours, 0.1% DMSO, methylene blue
# Method: as §1
# [4] = test system: human breast carcinoma MDA MB 468 cells; experiment: Cell proliferation, MDA MB 468 (Example 2); assay type: cell-based; details: MDA-468, breast cancer, 72 hours, 0.1% DMSO
# Method: as §1
# [5] = test system: human multiple myeloma U266 cells; experiment: Cell proliferation, U266 (Example 4); assay type: cell-based; details: U-266, compound in 2-hydroxypropyl-β-cyclodextrin
# Method: as §1
# [6] = test system: human prostate carcinoma PC3 cells; experiment: Cell proliferation, PC3 (Example 4); assay type: cell-based; details: PC-3, PC3, prostate cancer, compound in 2-hydroxypropyl-β-cyclodextrin
# Method: as §1
structure (smiles),measurement,setting,value
O=c1c(O)cc2cnc(/C=C/c3cc(O)c(O)c(Br)c3)sc-2c1O [Compound 3],IGF1-induced PKB/Akt activation,[1],inhibition of IGF1-induced PKB/Akt activation
same,IC50,[2],2 µM
same,IC50,[3],1 µM
same,IC50,[4],3.8 µM
same,IC50,[5],0.7 µM
same,IC50,[6],0.7 µM
